The source of these data is US20240383908A1, “SYNTHESIS AND APPLICATION OF PHOSPHATASE DEGRADER” (HINOVA PHARMACEUTICALS INC., priority 2021, published 2024).

The target of assay [1] is T1, SHP2 protein (Homo sapiens, UniProt Q06124).
T1 sequence (Q06124 1-593): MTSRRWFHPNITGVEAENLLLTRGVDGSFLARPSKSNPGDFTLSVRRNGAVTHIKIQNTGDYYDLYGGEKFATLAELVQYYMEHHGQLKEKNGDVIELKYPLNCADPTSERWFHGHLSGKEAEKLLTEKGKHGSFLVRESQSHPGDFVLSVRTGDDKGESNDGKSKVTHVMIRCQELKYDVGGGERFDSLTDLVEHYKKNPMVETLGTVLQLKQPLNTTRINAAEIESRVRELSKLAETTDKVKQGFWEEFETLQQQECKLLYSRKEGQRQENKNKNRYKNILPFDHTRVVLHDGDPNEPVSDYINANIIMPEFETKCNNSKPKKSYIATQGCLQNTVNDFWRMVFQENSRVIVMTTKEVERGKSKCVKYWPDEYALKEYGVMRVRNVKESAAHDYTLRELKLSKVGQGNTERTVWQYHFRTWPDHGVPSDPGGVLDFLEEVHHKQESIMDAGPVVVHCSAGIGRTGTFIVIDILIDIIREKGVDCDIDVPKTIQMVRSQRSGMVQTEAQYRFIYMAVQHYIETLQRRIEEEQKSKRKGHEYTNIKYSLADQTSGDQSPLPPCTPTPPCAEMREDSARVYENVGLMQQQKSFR
The experiment in a line: Degradation activity on SHP2 protein in MV-411 cells (Western blot, DC50). It counts as cell-based. Conditions: MV411 cells, 24 hours, read-out: Degradation activity for differenct cell lines MV411 (DC50). More on the design: endogenous in cells. How it is done:
• MV-411 cell line (COBIER, CBP-60522) • FBS (GEMINI, Cat. No. 900-108) • 0.01M PBS (Biosharp, Cat. No. 162262) • IMDM (Hyclone, Cat. No. SH30228.01) • Penicillin-Streptomycin (Gibco, Cat. No. 15140122) • DMSO (Sigma, Cat. No. D5879) • Centrifuge Tube, 15 ml (Excell Bio, Cat. No. CS015-0001) • Cell Culture Dish, (WHB, Cat. No. CS016-0128) • 12-well cell culture cluster (Corning, Cat. No. 3513) • RIPA lysate buffer (Thermo, Cat. No. 89900) • Protein Loding Buffer (Beyotime, Cat. No. P0015L) • BCA Protein Assay Kit (EpiZyme, Cat. No. ZJ102) • SDS-PAGE Fast Preparation Kit (EpiZyme, Cat. No. PG112) • Anti-GAPDH (14C10) Rabbit mAb (CST, Cat. No. 2118L) • Anti-SHP2 rabbit mAb (CST, Cat. No. 37525) • Peroxidase Affinipure (HRP) Goat Anti-Rabbit IgG (Zen Bioscience, Cat. No. 511203) • TBST (Biosharp, Cat. No. BL601A) • ECL chemiluminescence kit (4A Biotech, Cat. No. 4AW011-200)
• (1) Cell culture medium: IMIDM medium+10% FBS+1% Pen Strep; • (2) PBS buffer: PBS powder was dissolved in 2 L of ultrapure water and sterilized; • (3) Cell lysate: RIPA lysate buffer is added with protease inhibitors at a ratio of 1:1000 before use.
(1) MV-411 cells were cultured in the cell culture medium, and then well-growing cells were selected and inoculated in a 12-well plate, with 1 mL/well and 1×10^6 cells/well. The plate was incubated overnight in a 5% CO2 cell incubator at 37° C.
(2) 10 mM storage solution of each drug was prepared using dimethylsulfoxide (DMSO). The stock solution was diluted gradually with DMSO before use, and then 1 μL of the compound solution was added to the cell culture well (to ensure that the DMSO concentration in the culture system was […]), so that the final drug concentration is 100 nM, 10 nM, 3 nM, 1 nM, 0.3 nM, and 0.1 nM. Two wells were set for each concentration. The plate was gently shaken and mixed. Additionally, negative control wells (containing an equal amount of DMSO) and positive control wells were included.
(3) After 24 hours of cultivation, the cells were lysed using RIPA cell lysate, and the proteins were extracted. The protein concentration was measured using a BCA assay kit. 5× concentrated protein buffer was loaded, heated at 100° C. for 5 min, and then the sample was stored at −20° C.
(4) For each well, 30 μg of protein was loaded to polyacrylamide gel for electrophoresis.
(5) The protein was transferred from polyacrylamide gel to PVDF membrane, and sealed at room temperature with 5% skimmed milk for 1 h, which was then incubated with the primary antibodies (Anti-SHP2 rabbit mAb and Anti-GAPDH rabbit mAb) at 4° C. overnight. The membrane was washed three times with TBST solution, 10 minutes for each time. After that, the membrane was incubated with the secondary antibodies (horseradish peroxidase labeled goat anti-rabbit IgG) at room temperature for 2 h, and then washed three times with TBST solution, 10 minutes for each time, followed by exposure.
(6) The images were analyzed with Image J grayscale, and the degradation ratio of protein bands in the test group was calculated, based on the negative control group (DMSO) (100%).
(7) Using the Dose-response-inhibition equation in the data processing software GraphPad Prism 8, the DC50 value was obtained (which represents the drug concentration corresponding to 50% degradation of the target protein).
Finally, ECL detection solution was added for color development, and photos were taken with an automatic chemiluminescence instrument, so as to collect images and analyze them.

In assay [2] the target is T1, SHP2 protein. Briefly: Degradation activity on SHP2 protein in MIA Paca-2 cells (Western blot, DC50). It counts as cell-based. More on the design: endogenous in cells; host or cells: MIA Paca-2 cells. Conditions: read-out: Degradation activity for differenct cell lines MIA Paca-2 (DC50). The method in brief:
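Cells were treated 24 h at 37 °C with compound (0.1–100 nM final, 0.1% DMSO). SHP2 was measured by Western blot with GAPDH as loading control, densitometry normalized to DMSO (100%). DC50, the concentration giving 50% degradation, came from a dose-response fit.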

By DC50 is commonly meant the concentration giving 50% degradation.

Where only a bound is given, the exact number is not on record here.

`CC1(N)CCN(c2cnc(Sc3cccc(NC(=O)CCCCCCCCCCC(=O)NCc4ccc5c(c4)CN(C4CCC(=O)NC4=O)C5=O)c3)cn2)CC1` (stereo not drawn) [Compound 40]: the 50% degradation concentration (DC50) at SHP2 protein [1] was under 100 nM.

For the compound `CC1(N)CCN(c2cnc(Sc3cccc(NC(=O)CCCCCCCN4CCN(c5ncc(C(=O)NCc6ccc7c(c6)CN(C6CCC(=O)NC6=O)C7=O)cn5)CC4)c3)cn2)CC1` (stereo not drawn) [Compound 72], the DC50 at SHP2 protein [1] is under 100 nM.

On to `CC1(N)CCN(c2cnc(Sc3cccc(NC(=O)CCN4CC5(CCN(CCCCCC(=O)NCc6cccc7c6CN(C6CCC(=O)NC6=O)C7=O)C5)C4)c3)cn2)CC1` (stereo not drawn) [Compound 45], for which the 50% degradation concentration (DC50) on SHP2 protein [1] was 100 to 1000 nM.

Take `CC1(N)CCN(c2cnc(Sc3cccc(NC(=O)CCCCCCCCCC(=O)NCc4ccc5c(c4)CN(C4CCC(=O)NC4=O)C5=O)c3)cn2)CC1` (stereo not drawn) [Compound 57]: the half-maximal degradation concentration (DC50) at SHP2 protein [1] is over 1000 nM.

As to `N[C@H]1CCN(c2cnc(Sc3cccc(NC(=O)CCCCCCN4CC5(CCN(c6ccc(C(=O)NCc7ccc8c(c7)CN(C7CCC(=O)NC7=O)C8=O)nn6)C5)C4)c3)cn2)C[C@@H]1O` (stereo partly drawn) [Compound 197], the half-maximal degradation concentration (DC50) on SHP2 protein [1] was over 1000 nM.

Take `Cc1ncsc1-c1ccc([C@H](C)NC(=O)[C@@H]2C[C@@H](O)CN2C(=O)[C@@H](NC(=O)CCCCCCCCN2CCN(C(=O)CCC(=O)Nc3cccc(Sc4cnc(N5CCC(C)(N)CC5)cn4)c3)CC2)C(C)(C)C)cc1` [Compound 34]: the DC50 on SHP2 protein [1] was under 100 nM.

Consider `CC1(N)CCN(c2cnc(Sc3cccc(NC(=O)CCCCCCCOC4CCN(c5ncc(C(=O)Nc6ccc7c(c6)C(=O)N(C6CCC(=O)NC6=O)C7)cn5)CC4)c3)cn2)CC1` (stereo not drawn) [Compound 94], for which the DC50 on SHP2 protein [1] is over 1000 nM.

As to `CC1(N)CCN(c2cnc(Sc3cccc(NC(=O)C4CN(CCCCCCCCCCC(=O)NCc5ccc6c(c5)CN(C5CCC(=O)NC5=O)C6=O)C4)c3)cn2)CC1` (stereo not drawn) [Compound 43], on SHP2 protein [1], the DC50 was over 1000 nM.

As for `CC1(N)CCN(c2cnc(Sc3cccc(NC(=O)COCCOCCOCCOCC(=O)Nc4cccc5c4CN(C4CCC(=O)NC4=O)C5=O)c3)cn2)CC1` (stereo not drawn) [Compound 17], the DC50 on SHP2 protein [1] is over 1000 nM.

For `CC(=O)NC1(C)CCN(c2cnc(Sc3cccc(NC(=O)CCCCCCCCN4CCN(c5ncc(C(=O)NCc6ccc7c(c6)CN(C6CCC(=O)NC6=O)C7=O)cn5)CC4)c3)cn2)CC1` (stereo not drawn) [Compound 85], the half-maximal degradation concentration (DC50) at SHP2 protein [1] is over 1000 nM.

Take `CC1(N)CCN(c2cnc(Sc3cccc(NC(=O)COCCOCCOCCOCC(=O)Nc4ccc5c(c4)C(=O)N(C4CCC(=O)NC4=O)C5)c3)cn2)CC1` (stereo not drawn) [Compound 4]: on SHP2 protein [1], the DC50 lay in the range of 100 to 1000 nM.

As for `CC1(N)CCN(c2cnc(Sc3cccc(NC(=O)CCCCCCCCCCCCC(=O)NCc4ccc5c(c4)CN(C4CCC(=O)NC4=O)C5=O)c3)cn2)CC1` (stereo not drawn) [Compound 41], the DC50 at SHP2 protein [1] was over 1000 nM.

For the compound `CC1(N)CCN(c2cnc(Sc3cccc(NC(=O)CCCCCCCCN4C5CCC4CN(c4ccc(C(=O)N6CCN(c7ccc8c(c7)C(=O)N(C7CCC(=O)NC7=O)C8=O)CC6)nn4)C5)c3)cn2)CC1` (stereo not drawn) [Compound 148], the half-maximal degradation concentration (DC50) on SHP2 protein [1] is under 100 nM.

As for `Cc1nc2cccc(NC(=O)COCCOCCNC(=O)CCC(=O)Nc3cccc(Sc4cnc(N5CCC(C)(N)CC5)cn4)c3)c2c(=O)n1C1CCC(=O)NC1=O` (stereo not drawn) [Compound 20], the DC50 on SHP2 protein [1] was over 1000 nM.

For `N[C@H]1CCN(c2cnc(Sc3cccc(NC(=O)CCCCCN4CC5(CCN(c6ccc(C(=O)NCc7ccc8c(c7)CN(C7CCC(=O)NC7=O)C8=O)nn6)C5)C4)c3)cn2)C[C@@H]1O` (stereo partly drawn) [Compound 196], the DC50 on SHP2 protein [1] was over 1000 nM.

As for `NC1(CO)CCN(c2cnc(Sc3cccc(NC(=O)CCCCCCCNc4ccc(-c5ccc(C(=O)NCc6ccc7c(c6)C(=O)N(C6CCC(=O)NC6=O)C7)nn5)cc4)c3)cn2)CC1` (stereo not drawn) [Compound 201], the DC50 at SHP2 protein [1] was 100 to 1000 nM.

`Cc1ncsc1-c1ccc([C@H](C)NC(=O)[C@@H]2C[C@@H](O)CN2C(=O)[C@@H](NC(=O)c2cnc(N3CCC4(CN(CCCCCCCC(=O)Nc5cccc(Sc6cnc(N7CCC(C)(N)CC7)cn6)c5)C4)C3)nc2)C(C)(C)C)cc1` [Compound 71]: the DC50 at SHP2 protein [1] was under 100 nM.

Turning to `Cc1ncsc1-c1ccc([C@H](C)NC(=O)[C@@H]2C[C@@H](O)CN2C(=O)[C@@H](NC(=O)COCCOCCOCCOCC(=O)Nc2cccc(Sc3cnc(N4CCC(C)(N)CC4)cn3)c2)C(C)(C)C)cc1` [Compound 12], on SHP2 protein [1], the DC50 was under 100 nM.

As to `CC1(N)CCN(c2cnc(Sc3cccc(NC(=O)COCCOCCOCCOCC(=O)Nc4ccc5c(c4)CN(C4CCC(=O)NC4=O)C5=O)c3)cn2)CC1` (stereo not drawn) [Compound 18], the half-maximal degradation concentration (DC50) at SHP2 protein [1] was over 1000 nM.

Turning to `NC1CN(c2cnc(Sc3cccc(NC(=O)CCCCCCN4CC5(CCN(c6ccc(C(=O)NCc7ccc8c(c7)CN(C7CCC(=O)NC7=O)C8=O)nn6)C5)C4)c3)cn2)CC1O` (stereo not drawn) [Compound 206], on SHP2 protein [1], the DC50 is over 1000 nM.

As for `C[C@@H]1OCC2(CCN(c3cnc(Sc4cccc(NC(=O)CCCCCCCN5CC6(CCN(Cc7ccc(COc8cccc9c8CN(C8CCC(=O)NC8=O)C9=O)cc7)C6)C5)c4)cn3)CC2)[C@@H]1N` (stereo partly drawn) [Compound 113], at SHP2 protein [1], the DC50 was over 1000 nM.

As for `CC1(N)CCN(c2cnc(Sc3cccc(NC(=O)CCN4CCN(Cc5ccc(COc6cccc7c6CN(C6CCC(=O)NC6=O)C7=O)cc5)CC4)c3)cn2)CC1` (stereo not drawn) [Compound 84], the half-maximal degradation concentration (DC50) at SHP2 protein [1] was over 1000 nM.

Take `CC1(N)CCN(c2cnc(Sc3cccc(NC(=O)c4ccc(N5CCN(c6ccc(C(=O)NCc7ccc8c(c7)C(=O)N(C7CCC(=O)NC7=O)C8)nn6)CC5)c(F)c4)c3)cn2)CC1` (stereo not drawn) [Compound 260]: on SHP2 protein [2], the half-maximal degradation concentration (DC50) was over 1000 nM.

As to `CC1(N)CCN(c2cnc(Sc3cccc(NC(=O)c4ccc(C5=CCC(N6CC=C(c7ccc(C(=O)NCc8ccc9c(c8)CN(C8CCC(=O)NC8=O)C9=O)nn7)CC6)CC5)cc4)c3)cn2)CC1` (stereo not drawn) [Compound 309], the DC50 on SHP2 protein [2] is under 100 nM.

For the compound `CC1(N)CCN(c2cnc(Sc3cccc(NC(=O)C4CCC(N5CC=C(c6ccc(C(=O)NCc7ccc8c(c7)CN(C7CCC(=O)NC7=O)C8=O)nc6)CC5)CC4)c3)cn2)CC1` (single isomer, unassigned) [Compound 301], the DC50 at SHP2 protein [2] was over 1000 nM.

As for `Cc1cc(N2CCC(N3CC=C(c4ccc(C(=O)NCc5ccc6c(c5)CN(C5CCC(=O)NC5=O)C6=O)nc4Cl)CC3)CC2)ccc1C(=O)Nc1cccc(Sc2cnc(N3CCC(C)(N)CC3)cn2)c1` (stereo not drawn) [Compound 444], the DC50 at SHP2 protein [2] was under 100 nM.

As for `CC1(N)CCN(c2cnc(Sc3cccc(NC(=O)c4ccc(C5=CCC(N6CC=C(c7ccc(C(=O)NCc8ccc9c(c8)CN(C8CCC(=O)NC8=O)C9=O)nc7)CC6)CC5)nc4)c3)cn2)CC1` (stereo not drawn) [Compound 432], at SHP2 protein [2], the DC50 was over 1000 nM.
